For four molecules, MIC and CC50 results are on record in patent US8044204B2, “8-methoxy-9H-isothiazolo[5,4-b]quinoline-3,4-diones and related compounds as anti-infective agents” (Achillion Pharmaceuticals, Inc., priority 2005, dated 2011).

Converted amounts (≈) assume the structure as drawn. Like-named read-outs stand apart in the source and are kept apart here. Where only a bound is given, the exact number is not on record here.

What all share (assay type): cell-based
In data set [1] the test system is MRSA strain ATCC 700699. Nature of the data set: Minimum Inhibitory Concentration (MIC) assay, Methicillin Resistant S. Aureus. As to conditions: Staphylococcus aureus.
Data set [2] deals with S. aureus ATCC 29213. Nature of the data set: Minimum Inhibitory Concentration (MIC) assay, S. aureus. As to conditions: Staphylococcus aureus, ATCC29213; broth microdilution; read-out: MIC against S. Aureus. Put shortly:
(§1)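 NCCLS broth microdilution in Mueller-Hinton II broth, two-fold dilutions giving final 0.125–128 μg/mL, inoculum ~1×10^6 cfu/mL. Incubated in ambient air at 37 °C for 18–24 h. MIC read as lowest concentration with no visible growth.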
A general note: In broth dilution the organism is exposed to a series of concentrations in liquid medium.

In data set [3] the test system is E. coli ATCC 25922. Nature of the data set: Minimum Inhibitory Concentration (MIC) assay, E. coli. To be noted: Escherichia coli, ATCC25922; broth microdilution; read-out: MIC against E. coli. Put shortly:
as §1

Data set [4] is described as follows: Cell viability staining with Alamar Blue (cytotoxicity CC50), Hep2. To be noted: human. As for the experimental part:
To determine whether the microcidal effect observed against S. aureus and E. coli is specific to bacterial cells, compounds are screened for cell viability effects on several human cell types.
Optimal cell density is first determined by plating cells in a 96-well plate standard sterile tissue culture plates in 100 μl media, 10% FBS at six cell densities from 500 cells/well to 15,000 cells/well. A cell free well containing only media is used as a control. Cells are incubated at 37° C. in a 5% CO2 incubator for 24 hours. 10% culture volume (10 ul) of Alamar Blue (Biosource, DAL1100, 100 mL) is then added. Cells are incubated at 37° C. in a 5% CO2 incubator and read in a Victor V plate reader, 544 nm excitation, 590 nm emission, at 3, 4, and 24 hours after the addition of Alamar Blue. The cell number vs. change in fluorescence is plotted to determine linearity of signal vs. cell number. The optimal density varies between 500-15,000 cells/well depending on the specific cell type. The optimal density is selected based on the highest number of cells that is still in the linear response range.
Determination of Compound Cytotoxicity
Cells are plated at optimal cell density in a standard sterile tissue culture 96 well plate, and incubated at 37° C. O/N in a 5% CO2 incubator. 12 to 48 hours post-plating media is removed. The cells are washed 1 or 2 times with 1×PBS and replaced with fresh media containing the test compound in 1% DMSO. 24 to 72 hours after addition of compound, the media is removed, and the cells washed 1 to 2 times with 1×PBS. Fresh media containing 1/10 volume of Alamar Blue is then added. Plates are incubated 4 hours at 37° C. in a 5% CO2 incubator and read in a Victor V plate reader, 544 nm excitation, 590 nm emission.
Compounds are diluted to 20 micromolar in 1% DMSO and media and screened in duplicate to obtain single concentration cytotoxicity data. Eight concentration points from 0.78 micromolar to 100 micromolar, run in duplicate, are used to determine cyclotoxicity CC50 values. Cells with 1% DMSO and media are used as a negative control, compounds having a known CC50 against a particular cell type are used as positive controls.
The change in fluorescence vs. concentration of test compound is plotted to determine the cytotoxicity of the compound.
Sample media conditions, optimal plating densities, and positive control compounds for two cell types screened are presented in Table III.
For orientation: The colour change of resazurin is a common sign of viable cells or microbes.

Data set [5] is described as follows: in vitro. To be noted: Chinese hamster.
Where [6] appears, read: R6 = F, R8 = Methoxy compounds, MRSA ATCC 700699, read-out: MRSA MIC.
The mark [7] stands for this setting: Hep2 cells (ATCC CCL-23), R6 = F, R8 = Methoxy compounds, Hep2 ATCC CCL-23, read-out: hep2 CC50.

On to `COc1c(N2CCC(N(C)C)C2)c(F)cc2c(=O)c3c(=O)[nH]sc3n(C3CC3)c12` (stereo not drawn) [Compound 49, 9-cyclopropyl-7-(3-(dimethyl-amino)pyrrolidin-1-yl)-6-fluoro-8-methoxy-isothiazolo[5,4-b]quinoline-3,4(2H,9H)-dione], for which the MIC (as a rule, the lowest concentration found to suppress growth) in data set [1] (setting [6]) was 4 µg/mL (≈ 9.56 µM); in data set [2], not above 1 µg/mL; in data set [3], not above 1 µg/mL. Also, in data set [4] (setting [7]), the CC50 – broadly, the concentration at which the toxic effect on the cells reaches its halfway point – came out at 68 µM.
In the case of `CNC(C)(C)[C@@H]1CCN(c2cc3c(cc2F)c(=O)c2c(=O)[nH]sc2n3C2CC2)C1` [Compound 80, (R)-9-cyclo-propyl-6-fluoro-7-(3-(2-(methylamino)propan-2-yl)-pyrrolidin-1-yl)isothia-zolo[5,4-b]quinoline-3,4(2H,9H)-dione], the MIC in data set [1] (R6 = F, R8 = H compounds, MRSA ATCC 700699, read-out: MRSA MIC) was 2 µg/mL (≈ 4.8 µM); in data set [2], not above 1 µg/mL; in data set [3] it was not above 1 µg/mL. For the same molecule, the CC50 in data set [4] (Hep2 cells (ATCC CCL-23), R6 = F, R8 = H compounds, Hep2 ATCC CCL-23, read-out: hep2 CC50) came out at 0.57 µM.
`COc1c(N2CC[C@@H](CN)C2)c(F)cc2c(=O)c3c(=O)[nH]sc3n(C3CC3)c12` [Compound 63, (S)-7-(3-(aminomethyl)-pyrrolidin-1-yl)-9-cyclopropyl-6-fluoro-8-methoxyiso-thiazolo[5,4-b]quinoline-3,4(2H,9H)-dione]: the MIC was 0.42 µg/mL (≈ 1.04 µM) in data set [1] (setting [6]); not above 1 µg/mL in data set [1] (broth microdilution, read-out: MIC against Methicillin Resistant S. Aureus); not above 1 µg/mL in data set [2]; not above 1 µg/mL in data set [3]. Further, the CC50 in data set [4] (setting [7]) is 11 µM.
With `CC(C)(C)c1ccc(C(O)CCCN2CCC(C(O)(c3ccccc3)c3ccccc3)CC2)cc1` (stereo not drawn) [Terfenadine, reference compound], the figures for the CC50 in data set [5] and in data set [4] were 4.3 to 6.5 µM and 3 to 5 µM, respectively.
